Laboratory results reported in patent US11306092B2, “Amino indole compounds useful as TLR inhibitors” (BRISTOL-MYERS SQUIBB COMPANY, priority 2017, dated 2022).
pIC50: −log10 of the molar value. Where a name gives a salt, the structure may show the parent alone.

Experiments:
Format in all cases: cell-based
human TLR7 = target: T1, human TLR7 (Homo sapiens, UniProt Q9NYK1); assay: TLR7 inhibition reporter assay (HEK-Blue SEAP reporter); conditions: HEK-Blue cells overexpressing human TLR7; gardiquimod 7.5 μM; 22 hour incubation
T1 construct: host or cells: HEK-Blue cells
T1 sequence (Q9NYK1 27-1049): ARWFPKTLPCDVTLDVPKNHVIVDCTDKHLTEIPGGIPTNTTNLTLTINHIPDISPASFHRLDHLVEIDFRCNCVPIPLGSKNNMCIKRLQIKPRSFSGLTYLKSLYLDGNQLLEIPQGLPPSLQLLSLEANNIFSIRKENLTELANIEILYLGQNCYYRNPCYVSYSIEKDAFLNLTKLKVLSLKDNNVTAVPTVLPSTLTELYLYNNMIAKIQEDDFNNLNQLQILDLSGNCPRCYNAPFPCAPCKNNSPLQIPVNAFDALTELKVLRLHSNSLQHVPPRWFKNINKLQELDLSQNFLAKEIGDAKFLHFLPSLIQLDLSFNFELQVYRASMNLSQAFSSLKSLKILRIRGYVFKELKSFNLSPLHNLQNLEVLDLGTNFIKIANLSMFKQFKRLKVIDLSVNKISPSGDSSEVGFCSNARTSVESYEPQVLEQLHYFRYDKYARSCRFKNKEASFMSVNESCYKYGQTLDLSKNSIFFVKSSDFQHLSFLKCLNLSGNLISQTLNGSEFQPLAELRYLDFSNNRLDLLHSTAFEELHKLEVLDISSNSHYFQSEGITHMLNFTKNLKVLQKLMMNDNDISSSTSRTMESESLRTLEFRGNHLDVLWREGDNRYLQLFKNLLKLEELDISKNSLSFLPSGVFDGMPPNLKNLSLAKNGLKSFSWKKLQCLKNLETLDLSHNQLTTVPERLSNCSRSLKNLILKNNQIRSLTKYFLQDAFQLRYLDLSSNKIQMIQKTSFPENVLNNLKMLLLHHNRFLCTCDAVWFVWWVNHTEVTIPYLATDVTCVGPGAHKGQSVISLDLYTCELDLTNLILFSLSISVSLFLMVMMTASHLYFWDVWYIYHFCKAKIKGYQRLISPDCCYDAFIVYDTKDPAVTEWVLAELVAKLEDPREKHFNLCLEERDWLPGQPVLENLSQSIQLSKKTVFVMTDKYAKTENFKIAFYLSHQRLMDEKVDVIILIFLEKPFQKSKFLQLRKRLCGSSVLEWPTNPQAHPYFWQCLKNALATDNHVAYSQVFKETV
How it was run: (§1)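 Dose–response from 0.05 nM to 50 μM was run in HEK-Blue human TLR7, TLR8 and TLR9 reporter cells. After 30 min at room temperature with compound, ligand was added (TLR7 gardiquimod 7.5 μM; TLR8 R848 15.9 μM; TLR9 ODN2006 5 nM) and SEAP measured next day, at 22 h.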

human TLR8 = target: T2, human TLR8 (Homo sapiens, UniProt Q9NR97); assay: TLR8 inhibition reporter assay (HEK-Blue SEAP reporter); conditions: HEK-Blue cells overexpressing human TLR8; R848 15.9 μM; 22 hour incubation
T2 construct: host or cells: HEK-Blue cells
T2 sequence (Q9NR97 27-1041): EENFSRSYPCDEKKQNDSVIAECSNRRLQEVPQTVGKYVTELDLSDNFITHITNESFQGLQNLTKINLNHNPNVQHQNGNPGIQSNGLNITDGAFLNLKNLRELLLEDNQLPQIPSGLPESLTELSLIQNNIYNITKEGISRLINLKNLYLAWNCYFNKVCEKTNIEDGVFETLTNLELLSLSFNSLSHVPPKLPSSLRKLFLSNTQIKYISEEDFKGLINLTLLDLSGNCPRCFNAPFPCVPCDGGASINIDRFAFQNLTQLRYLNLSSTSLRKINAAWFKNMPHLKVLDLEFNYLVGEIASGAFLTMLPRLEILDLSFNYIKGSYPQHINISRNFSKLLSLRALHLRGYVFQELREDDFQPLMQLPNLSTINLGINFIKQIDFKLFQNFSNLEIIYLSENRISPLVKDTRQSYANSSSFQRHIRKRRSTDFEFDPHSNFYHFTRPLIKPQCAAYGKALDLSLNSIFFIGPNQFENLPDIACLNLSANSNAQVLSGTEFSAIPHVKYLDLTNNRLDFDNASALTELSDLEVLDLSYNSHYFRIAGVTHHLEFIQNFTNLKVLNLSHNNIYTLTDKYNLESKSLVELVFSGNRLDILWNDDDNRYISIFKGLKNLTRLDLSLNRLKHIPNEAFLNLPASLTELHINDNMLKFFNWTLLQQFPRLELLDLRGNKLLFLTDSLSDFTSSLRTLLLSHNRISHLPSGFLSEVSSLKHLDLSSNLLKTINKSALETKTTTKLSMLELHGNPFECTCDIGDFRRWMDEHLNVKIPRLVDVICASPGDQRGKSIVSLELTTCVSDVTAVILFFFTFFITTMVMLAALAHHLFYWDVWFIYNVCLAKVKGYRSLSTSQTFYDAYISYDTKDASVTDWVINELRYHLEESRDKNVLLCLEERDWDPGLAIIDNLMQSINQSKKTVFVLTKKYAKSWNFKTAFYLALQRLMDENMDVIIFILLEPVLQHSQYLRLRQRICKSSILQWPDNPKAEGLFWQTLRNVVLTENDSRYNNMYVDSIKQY
How it was run: as §1

human TLR9 = target: T3, human TLR9 (Homo sapiens, UniProt Q9NR96); assay: TLR9 inhibition reporter assay (HEK-Blue SEAP reporter); conditions: HEK-Blue cells overexpressing human TLR9; ODN2006 5 nM; 22 hour incubation
T3 construct: host or cells: HEK-Blue cells
T3 sequence (Q9NR96 26-1032): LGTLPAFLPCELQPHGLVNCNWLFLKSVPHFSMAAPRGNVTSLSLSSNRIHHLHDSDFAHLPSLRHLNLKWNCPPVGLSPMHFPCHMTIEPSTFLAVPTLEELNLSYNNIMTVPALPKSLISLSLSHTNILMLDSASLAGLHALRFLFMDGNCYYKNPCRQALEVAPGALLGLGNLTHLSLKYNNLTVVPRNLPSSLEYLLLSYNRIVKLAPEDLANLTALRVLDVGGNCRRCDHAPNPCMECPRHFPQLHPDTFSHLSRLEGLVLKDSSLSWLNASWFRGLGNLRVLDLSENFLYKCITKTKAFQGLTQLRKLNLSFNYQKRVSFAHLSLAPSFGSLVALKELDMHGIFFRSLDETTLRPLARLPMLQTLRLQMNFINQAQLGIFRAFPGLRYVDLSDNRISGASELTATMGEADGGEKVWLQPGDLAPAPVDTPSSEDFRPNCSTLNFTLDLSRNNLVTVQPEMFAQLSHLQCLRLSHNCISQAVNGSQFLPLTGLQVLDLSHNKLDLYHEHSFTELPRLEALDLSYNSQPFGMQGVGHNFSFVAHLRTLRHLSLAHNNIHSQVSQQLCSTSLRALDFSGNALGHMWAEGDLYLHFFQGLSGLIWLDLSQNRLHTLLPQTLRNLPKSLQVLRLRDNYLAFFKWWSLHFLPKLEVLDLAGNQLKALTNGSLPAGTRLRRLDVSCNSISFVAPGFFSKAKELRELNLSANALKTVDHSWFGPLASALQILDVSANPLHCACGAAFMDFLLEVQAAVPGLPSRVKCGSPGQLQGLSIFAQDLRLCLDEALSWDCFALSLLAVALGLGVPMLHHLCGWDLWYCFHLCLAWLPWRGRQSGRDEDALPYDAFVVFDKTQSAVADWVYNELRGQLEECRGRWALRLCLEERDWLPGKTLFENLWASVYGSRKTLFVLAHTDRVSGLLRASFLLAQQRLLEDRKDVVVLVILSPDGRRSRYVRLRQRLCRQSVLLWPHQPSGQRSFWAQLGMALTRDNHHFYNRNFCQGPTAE
How it was run: as §1

Compound	pIC50 (human TLR7)	pIC50 (human TLR8)	pIC50 (human TLR9)
COc1ccc(-c2[nH]c3ccc(N4CCC(N(C)C)C4)cc3c2C(C)C)cc1OC (stereo not drawn) [Example 120, 1-(2-(3,4-dimethoxyphenyl)-3-isopropyl-H-indol-5-yl)-N,N-dimethylpyrrolidin-3-amine]	6.93	7.77	5.48
COc1ccc(-c2[nH]c3ccc(N4CCC(N5CCCNCC5)CC4)cc3c2C(C)C)cc1OC [Example 121, 5-(4-(1,4-diazepan-1-yl)piperidin-1-yl)-2-(3,4-dimethoxyphenyl)-3-isopropyl-1H-indole]	7.82	8.28	6.00
COc1ccc(-c2[nH]c3ccc(N4CCN(C5CCCN(C(C)C)CC5)CC4)cc3c2C(C)C)cc1OC (stereo not drawn) [Example 122, 2-(3,4-dimethoxyphenyl)-3-isopropyl-5-(4-(1-isopropylazepan-4-yl)piperazin-1-yl)-1H-indole]	7.38	8.47	6.21
COc1ccc(-c2[nH]c3ccc(N4CCNCC4)cc3c2C(C)C)cc1OC [Example 126, 2-(3,4-dimethoxyphenyl)-3-isopropyl-5-(piperazin-1-yl)-1H-indole, TFA Salt]	7.28	7.85	5.32
CNCCN1CCN(c2ccc3[nH]c(-c4ccc(OC)c(OC)c4)c(C(C)C)c3c2)CC1 [Example 127, 2-(4-(2-(3,4-dimethoxyphenyl)-3-isopropyl-1H-indol-5-yl)piperazin-1-yl)-N-methylethanamine]	7.35	7.82	5.20
CC(C)c1c(-c2ccnc3[nH]ccc23)[nH]c2ccc(N3CCNCC3)cc12 [Example 128, 4-(3-isopropyl-5-(piperazin-1-yl)-1H-indol-2-yl)-1H-pyrrolo[2,3-b]pyridine]	8.64	9.39	5.09
CCc1c(-c2ccc(OC)c(OC)c2)[nH]c2ccc(N3CCC(C4CCNCC4)CC3)cc12 [Example 131, 5-([4,4′-bipiperidin]-1-yl)-2-(3,4-dimethoxyphenyl)-3-ethyl-1H-indole]	6.73	6.88	6.19
COc1ccc(-c2[nH]c3ccc(N4CCC(OC5CCNCC5)CC4)cc3c2C(C)C)cc1OC [Example 133, 2-(3,4-dimethoxyphenyl)-3-isopropyl-5-(4-(piperidin-4-yloxy)piperidin-1-yl)-1H-indole]	7.80	7.26	6.47
COc1ccc(-c2[nH]c3ccc(N4CC5CCCNC5C4)cc3c2C(C)C)cc1OC (stereo not drawn) [Example 135, 6-(2-(3,4-dimethoxyphenyl)-3-isopropyl-1H-indol-5-yl)octahydro-1H-pyrrolo[3,4-b]pyridine]	6.11	7.02	5.61
Cc1c(-c2ccnc3[nH]ccc23)[nH]c2ccc(N3CCN(C4CCN(C)CC4)CC3)cc12 [Example 141, 4-(3-methyl-5-(4-(1-methylpiperidin-4-yl)piperazin-1-yl)-1H-indol-2-yl)-1H-pyrrolo[2,3-b]pyridine]	5.66	5.76	6.91

The remaining compounds from weak to strong by pIC50 (human TLR7), led by results:

pIC50 (human TLR7)	pIC50 (human TLR8)	pIC50 (human TLR9)	Compound
5.56	5.97	6.80	CCc1c(-c2ccnc(C)c2)[nH]c2ccc(N3CCN(C4CCN(C)CC4)CC3)cc12 [Example 139, 3-ethyl-5-(4-(1-methylpiperidin-4-yl)piperazin-1-yl)-2-(2-methylpyridin-4-yl)-1H-indole]
6.27	7.46	5.58	COc1ccc(-c2[nH]c3ccc(N4CC5(CCCNC5)C4)cc3c2C(C)C)cc1OC [Example 136, 2-(2-(3,4-dimethoxyphenyl)-3-isopropyl-H-indol-5-yl)-2,6-diazaspiro[3.5]nonane]
7.12	7.66	5.48	CCc1c(-c2cc(OC)nc(OC)c2)[nH]c2ccc(N3CCNCC3)cc12 [Example 129, 2-(2,6-dimethoxypyridin-4-yl)-3-ethyl-5-(piperazin-1-yl)-1H-indole]
7.27	7.03	6.34	CCc1c(-c2ccc(OC)c(OC)c2)[nH]c2ccc(N3CCC(OC4CCN(C)CC4)CC3)cc12 [Example 134, 2-(3,4-dimethoxyphenyl)-3-ethyl-5-(4-((1-methylpiperidin-4-yl)oxy)piperidin-1-yl)-1H-indole]
8.70	8.11	5.94	Cc1cc2[nH]c(-c3ccnc4[nH]ncc34)c(C(C)C)c2cc1N1CCNCC1 [Example 130, 4-(3-isopropyl-6-methyl-5-(piperazin-1-yl)-1H-indol-2-yl)-1H-pyrazolo[3,4-b]pyridine]
8.70	9.21	6.03	CNCCN1CCN(c2ccc3[nH]c(-c4ccnc5[nH]ccc45)c(C(C)C)c3c2)CC1 [Example 138, 2-(4-(3-isopropyl-2-(1H-pyrrolo[2,3-b]pyridin-4-yl)-1H-indol-5-yl)piperazin-1-yl)-N-methylethan-1-amine]
